Like-named read-outs stand apart in the source and are kept apart here.
Experiments:
[1] = Cytotoxicity on uninfected Huh-7 cells (WST-8, crystal violet); details: human, uninfected Huh-7 cells
[2] = test system: NCI-60 cell line panel; assay: NCI-60 single-dose assay, whole panel; type: cell-based, human; details: summary over the panel
Outline: (§1)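 Human cancer lines from nine tumour types in the NCI-60 panel were exposed to one compound dose, and cytotoxic activity was recorded for each line.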

[3] = test system: HT29 (colon cancer cell line); assay: NCI-60 five-dose assay; type: cell-based, human; details: read-out: Growth inhibition 50 (GI50)
[4] = in vitro; details: dog
[5] = test system: K-562 (leukemia cell line); assay: NCI-60 five-dose assay; type: cell-based, human; details: read-out: Growth inhibition 50 (GI50)
[6] = test system: SARS-CoV-2 VR PV10734 (strain Milano); assay: microbe, parasite or virus in culture; type: cell-based; details: preliminary screening (50, 5, 0.5 μM), Vero TMPRSS, read-out: SARS‐CoV‐2/Vero TMPRSS EC50
[7] = test system: HL-60(TB) (leukemia cell line); assay: NCI-60 five-dose assay; type: cell-based, human; details: five doses (10^−4–10^−8 M), read-out: Growth inhibition 50 (GI50)
[8] = test system: MOLT-4 (leukemia cell line); assay: NCI-60 five-dose assay; type: cell-based, human; details: five doses (10^−4–10^−8 M), read-out: Growth inhibition 50 (GI50)
[9] = test system: IAV strain A/PR/8/34 (H1N1); assay: microbe, parasite or virus in culture; details: Influenza A virus, MDCK, read-out: IAV/MDCK EC50
[10] = test system: HCT-15 (colon cancer cell line); assay: NCI-60 five-dose assay; type: cell-based, human; details: five doses (10^−4–10^−8 M), read-out: Growth inhibition 50 (GI50)
[11] = test system: IAV strain A/PR/8/34 (H1N1); details: for IAV/MDCK SI: preliminary screening
[12] = test system: NCI cancer panel (all cell lines); assay: NCI-60 five-dose assay, overall mean graph midpoint (MG_MID); type: cell-based, human
Procedure: Due to these preliminary results, six compounds, 1, 5, 10, 11, 17, and 20, were selected for the five-dose screen NCI-programme against the same panel of tumour cell lines.
Next, a mean graph midpoint (MG_MD) was calculated for compounds 1, 5, 10, 11, 17, and 20 and reported as waterfall graphs GI50, TGI, and LC50 in the Supplementary Materials (Figures S69–S86). In Table 9, we reported the average GI50 for the nine-cancer panels, underlining both the activity and selectivity for compounds 1, 10, 11, and 20.

[13] = test system: UACC-62 (melanoma cell line); assay: NCI-60 single-dose assay; type: cell-based, human
Outline: as §1

[14] = test system: MDA-MB-468 (breast cancer cell line); assay: NCI-60 single-dose assay; type: cell-based, human; details: human
Outline: as §1

[15] = test system: T-47D (breast cancer cell line); assay: NCI-60 single-dose assay; type: cell-based, human; details: for inhibition at 10 µM: Homo sapiens, T47D, read-out: growth inhibition (GI%) and cytotoxicity (negative values)
Outline: as §1

[16] = test system: KM12 (colon cancer cell line); assay: NCI-60 single-dose assay; type: cell-based, human; details: for inhibition at 10 µM: Homo sapiens, KM12, read-out: growth inhibition (GI%) and cytotoxicity (negative values)
Outline: as §1

[17] = test system: COLO 205 (colon cancer cell line); assay: NCI-60 single-dose assay; type: cell-based, human; details: human
Outline: as §1

[18] = test system: HCT-15 (colon cancer cell line); assay: NCI-60 single-dose assay; type: cell-based, human
Outline: as §1

[19] = test system: MDA-MB-435 (melanoma cell line); assay: NCI-60 single-dose assay; type: cell-based, human
Outline: as §1

[20] = test system: HL-60(TB) (leukemia cell line); assay: NCI-60 single-dose assay; type: cell-based, human; details: human
[21] = test system: CCRF-CEM (leukemia cell line); assay: NCI-60 single-dose assay; type: cell-based, human; details: for inhibition at 10 µM: Homo sapiens, read-out: growth inhibition (GI%) and cytotoxicity (negative values)
Outline: as §1

[22] = test system: LOX IMVI (melanoma cell line); assay: NCI-60 single-dose assay; type: cell-based, human
Outline: as §1

[23] = test system: SW-620 (colon cancer cell line); assay: NCI-60 single-dose assay; type: cell-based, human
Outline: as §1

[24] = test system: HCT-116 (colon cancer cell line); assay: NCI-60 single-dose assay; type: cell-based, human
Outline: as §1

[25] = test system: BT-549 (breast cancer cell line); assay: NCI-60 single-dose assay; type: cell-based, human; details: for inhibition at 10 µM: Homo sapiens, BT-549, read-out: growth inhibition (GI%) and cytotoxicity (negative values)
Outline: as §1

[26] = test system: SR (leukemia cell line); assay: NCI-60 single-dose assay; type: cell-based, human
Outline: as §1

[27] = test system: HCC-2998 (colon cancer cell line); assay: NCI-60 single-dose assay; type: cell-based, human; details: human
Outline: as §1

[28] = test system: UACC-257 (melanoma cell line); assay: NCI-60 five-dose assay
[29] = test system: LOX IMVI (melanoma cell line); assay: NCI-60 five-dose assay; details: for CC50: read-out: LC50 (molar concentration leading to 50% net cell death)
[30] = test system: RPMI-8226 (leukemia cell line); assay: NCI-60 five-dose assay; type: cell-based, human; details: five doses (10^−4–10^−8 M), read-out: Growth inhibition 50 (GI50)
[31] = test system: K-562 (leukemia cell line); assay: NCI-60 single-dose assay; type: cell-based; details: Homo sapiens, K562, read-out: growth inhibition (GI%) and cytotoxicity (negative values)
From the text: We first evaluated the cytotoxic activity of tricyclic-pyrrole carboxamides 1–20 using the NCI-60 cell line panel, representing nine different human cancers: leukemia, melanoma, and cancers of the lung, colon, central nervous system (CNS), ovary, kidney, prostate, and breast (the one-dose graph for compounds 1–20 is reported in Supplementary Materials, Figures S43–S62). Compounds 1, 5, 10, 11, 17, and 20 satisfied pre-determined threshold inhibition criteria in a minimum number of cell lines; therefore, they were also tested in the full five-dose assay (Figures S63–S68 in the Supplementary Materials).

[32] = test system: HCC-2998 (colon cancer cell line); assay: NCI-60 five-dose assay; type: cell-based, human; details: five doses (10^−4–10^−8 M), read-out: Growth inhibition 50 (GI50)
[33] = Homo sapiens, HT-29, five doses (10^−4–10^−8 M)
[34] = Homo sapiens, K562, five doses (10^−4–10^−8 M)
[35] = Homo sapiens, MG_MID over all panels, read-out: GI50 mean graph midpoint (MG_MID)
[36] = Homo sapiens, UACC-257, read-out: Growth inhibition 50 (GI50)
[37] = Homo sapiens, read-out: Growth inhibition 50 (GI50)

## CCN1CCC[C@H]1CNC(=O)c1[nH]c2c(c1Cl)CCCc1ccccc1-2 [Compound 1, (S)-3-Chloro-N-(1-ethyl-2-pyrrolidinylmethyl)-5,6-dihydro-4H-benzo[6,7]cyclohepta[1,2-b]pyrrol-2-carboxamide]
[1]
  CC50 at 48 h: 3.88 µM
[2]
  growth inhibition (GI%) reached against cancer cell lines of the NCI-60 panel: > 90%
[3]; [33]
  GI50: 1.86 µM
[4]
  CC50: 1.75 µM
[5]; [34]
  GI50: 1.76 µM
[6]; Severe acute respiratory syndrome coronavirus 2
  EC50: 9.61 µM
[7]; Homo sapiens
  GI50: 2.6 µM
[8]; Homo sapiens
  GI50: 3.57 µM
[9]
  EC50: 17.7 µM
[10]; Homo sapiens
  GI50: 2.31 µM
[11]
  IAV/MDCK SI: 0.10
[12]; [35]
  GI50: 4.26 µM
[12]; Homo sapiens, all cell lines, read-out: MG_MID Log10 GI50 (converted)
  GI50: 4.79 µM
[13]; human
  growth inhibition (GI%) and cytotoxicity (negative values): −73.43%
[14]
  growth inhibition (GI%) and cytotoxicity (negative values): −3.75%
[15]
  inhibition at 10 µM: 66.2%
[16]
  inhibition at 10 µM: 83.8%
[17]
  growth inhibition (GI%) and cytotoxicity (negative values): −52.22%
[18]; human
  growth inhibition (GI%) and cytotoxicity (negative values): −52.66%
[19]; human
  growth inhibition (GI%) and cytotoxicity (negative values): −78.15%
[20]
  growth inhibition (GI%) and cytotoxicity (negative values): −38.55%
[21]
  inhibition at 10 µM: 75.5%
[22]; human
  growth inhibition (GI%) and cytotoxicity (negative values): −25.00%
[23]; human
  growth inhibition (GI%) and cytotoxicity (negative values): −30.78%
[24]; human
  growth inhibition (GI%) and cytotoxicity (negative values): −25.27%
[25]
  inhibition at 10 µM: 62.9%
[26]; Homo sapiens, read-out: growth inhibition (GI%) and cytotoxicity (negative values)
  inhibition at 10 µM: 96.3%
[27]
  growth inhibition (GI%) and cytotoxicity (negative values): −21.01%
[28]; [36]
  GI50: 1.88 µM
[28]; Homo sapiens, UACC-257, read-out: LC50 (molar concentration leading to 50% net cell death)
  CC50: 8.51 µM
[28]; UACC-257
  TGI (molar concentration giving total growth inhibition): 3.98 µM
[29]
  TGI (molar concentration giving total growth inhibition): 3.39 µM
[29]; [37]
  GI50: 1.76 µM
[29]; Homo sapiens
  CC50: 6.31 µM
[30]; Homo sapiens
  GI50: 2.29 µM
[31]
  inhibition at 10 µM: 94%
[32]; Homo sapiens
  GI50: 2.98 µM

## O=C(NCCCN1CCN(c2ccccc2)CC1)c1cc2c([nH]1)-c1ccccc1CCC2 [Compound 10, N-(3-(4-Phenylpiperazin-1-yl)propyl)-1,4,5,6-tetrahydrobenzo[6,7]cyclohepta[1,2-b]pyrrole-2-carboxamide]
[1]
  CC50 at 48 h: 12.4 µM
[2]
  growth inhibition (GI%) reached against cancer cell lines of the NCI-60 panel: > 90%
[3]; [33]
  GI50: 3.14 µM
[4]
  CC50: 67.8 µM
[5]; [34]
  GI50: 2.58 µM
[7]; Homo sapiens
  GI50: 5.58 µM
[8]; Homo sapiens
  GI50: 4.97 µM
[10]; Homo sapiens
  GI50: 4.71 µM
[12]; [35]
  GI50: 7.24 µM
[13]; Homo sapiens, UACC-62, read-out: growth inhibition (GI%) and cytotoxicity (negative values)
  inhibition at 10 µM: < 60%
[14]
  growth inhibition (GI%) and cytotoxicity (negative values): −13.75%
[15]
  inhibition at 10 µM: 65.8%
[16]
  inhibition at 10 µM: 73.7%
[17]
  growth inhibition (GI%) and cytotoxicity (negative values): −58.03%
[18]; Homo sapiens, HCT-15, read-out: growth inhibition (GI%) and cytotoxicity (negative values)
  inhibition at 10 µM: 91.2%
[19]; Homo sapiens, MDA-MB-435, read-out: growth inhibition (GI%) and cytotoxicity (negative values)
  inhibition at 10 µM: 75.1%
[20]
  growth inhibition (GI%) and cytotoxicity (negative values): −30.92%
[21]
  inhibition at 10 µM: 61.2%
[22]; Homo sapiens, LOX IMVI, read-out: growth inhibition (GI%) and cytotoxicity (negative values)
  inhibition at 10 µM: 95.2%
[23]; Homo sapiens, SW-620, read-out: growth inhibition (GI%) and cytotoxicity (negative values)
  inhibition at 10 µM: 80.1%
[24]; Homo sapiens, HCT-116, read-out: growth inhibition (GI%) and cytotoxicity (negative values)
  inhibition at 10 µM: 95.7%
[25]
  inhibition at 10 µM: < 60%
[26]; human
  growth inhibition (GI%) and cytotoxicity (negative values): −19.75%
[27]
  growth inhibition (GI%) and cytotoxicity (negative values): −9.32%
[28]; [36]
  GI50: 2.29 µM
[28]; UACC-257
  TGI (molar concentration giving total growth inhibition): 6.61 µM
[29]
  TGI (molar concentration giving total growth inhibition): 19.5 µM
[29]; [37]
  GI50: 3.62 µM
[30]; Homo sapiens
  GI50: 3 µM
[31]
  inhibition at 10 µM: 99.4%
[32]; Homo sapiens
  GI50: 2.51 µM

## N-(3-(4-Benzylpiperazin-1-yl)propyl)-2-chloro-1,4,5,6-tetrahydrobenzo[6,7]cyclohepta[1,2-b]pyrrole-2-carboxamide [Compound 11]
[2]
  growth inhibition (GI%) reached against cancer cell lines of the NCI-60 panel: > 90%
[3]; five doses (10^−4–10^−8 M)
  GI50: 2.6 µM
[5]; five doses (10^−4–10^−8 M)
  GI50: 2.57 µM
[6]
  EC50: 17.7 µM
[7]
  GI50: 2.92 µM
[8]
  GI50: 2.69 µM
[10]
  GI50: 3.65 µM
[11]
  IAV/MDCK SI: 0.30
[11]; read-out: IAV/MDCK EC50, preliminary screening (50, 5, 0.5 μM), MDCK
  EC50: 17.7 µM
[12]; MG_MID over all panels, read-out: GI50 mean graph midpoint (MG_MID)
  GI50: 4.47 µM
[15]; T-47D, 10^−5 M, single dose
  growth inhibition (GI%) and cytotoxicity (negative values): 66.07%
[16]; KM12, 10^−5 M, single dose
  growth inhibition (GI%) and cytotoxicity (negative values): 78.00%
[18]; HCT-15, 10^−5 M, single dose
  growth inhibition (GI%) and cytotoxicity (negative values): 84.78%
[21]; 10^−5 M, single dose
  growth inhibition (GI%) and cytotoxicity (negative values): 76.14%
[22]; LOX IMVI, 10^−5 M, single dose
  growth inhibition (GI%) and cytotoxicity (negative values): 99.73%
[23]; SW-620, 10^−5 M, single dose
  growth inhibition (GI%) and cytotoxicity (negative values): 86.67%
[24]; HCT-116, 10^−5 M, single dose
  growth inhibition (GI%) and cytotoxicity (negative values): 96.84%
[25]; BT-549, 10^−5 M, single dose
  growth inhibition (GI%) and cytotoxicity (negative values): – (GI% values < 60% and no cytotoxicity)
[28]; UACC-257
  TGI (molar concentration giving total growth inhibition): 3.39 µM
[28]; read-out: Growth inhibition 50 (GI50), UACC-257, five doses (10^−4–10^−8 M)
  GI50: 1.74 µM
[28]; read-out: LC50 (molar concentration leading to 50% net cell death), UACC-257
  CC50: 6.61 µM
[29]
  TGI (molar concentration giving total growth inhibition): 5.13 µM
  CC50: 15.8 µM
[29]; read-out: Growth inhibition 50 (GI50), five doses (10^−4–10^−8 M)
  GI50: 2.16 µM
[30]
  GI50: 2.2 µM
[32]
  GI50: 1.73 µM

Reference: article PMC12566046, “Arylpiperazinyl-Benzocycloheptapyrrole-Carboxamides Endowed with Dual Anticancer and Antiviral Activities” (Molecules, 2025)
